# From US20230039917A1, “EXO-AZA SPIRO INHIBITORS OF MENIN-MLL INTERACTION” (Janssen Pharmaceutica NV, priority 2017, published 2023)
# Tested on: MOLM14 cells
# Test: Proliferation assay B (spheroid assay) MOLM14
# Type: cell-based, human
# Details: Homo sapiens, MOLM-14, 192 h, confluence at day 8, read-out: (3b) Spheroid assay MOLM14 (IC50(μM)) Assay B
# Method: 3b) Proliferation Assay B
# The anti-proliferative effect of menin/MLL protein/protein interaction inhibitor test compounds was assessed in human leukemia cell lines. The cell lines MV-4-11 and MOLM14 harbor MLL translocations and express the MLL fusion proteins MLL-AF4 and MLL-AF9, respectively, as well as the wildtype protein from the second allele. […] K562 was used as a control cell line containing two MLL wildtype alleles in order to exclude compounds that display general cytotoxic effects.
# MV-4-11 and MOLM14 were cultured in RPMI-1640 (Sigma Aldrich) supplemented with 10% fetal bovine serum (HyClone), 2 mM L-glutamine (Sigma Aldrich) and 50 μg/ml gentamycin (Gibco). K562 were propagated in RPMI-1640 (Sigma Aldrich) supplemented with 20% fetal bovine serum (HyClone), 2 mM L-glutamine (Sigma Aldrich) and 50 μg/ml gentamycin (Gibco).
# In order to assess the anti-proliferative effects, 1,500 MV-4-11, 300 MOLM14 cells or 750 K562 cells were seeded in 200 μl media per well in 96-well round bottom, ultra-low attachment plates (Costar, catalogue number 7007). Cell seeding numbers were chosen based on growth curves to ensure linear growth throughout the experiment. Test compounds were added at different concentrations and the DMSO content was normalized to 0.3%. Cells were incubated for 8 d at 37° C. and 5% CO2. Spheroid like growth was measured in real-time by live-cell imaging (IncuCyteZOOM, Essenbio, 4× objective) acquiring images at day 8. Confluence (%) as a measure of spheroid size was determined using an integrated analysis tool.
# In order to determine the effect of the test compounds over time, the confluence in each well as a measure of spheroid size, was calculated. Confluence […] at the beginning of the experiment (t=0) was used as baseline for the calculation.
# Absolute IC50 values were calculated as percent change in confluence as follows:
# LC=Low Control: cells treated with 1 μM of the cytotoxic agent staurosporin
# HC=High Control: Mean confluence (%) (DMSO treated cells)
# Effect=100−(100*(Sample−LC)/(HC−LC))
# To determine the IC50 a curve is fitted to the plot of % Effect vs Log 10 compound concentration using a sigmoidal fit with a variable slope and fixing the maximum to 100% and the minimum to 0%.
row,IC50,SMILES
1,1.95 µM,CN1CCN(Cc2cc(NC3CC4(CCN(c5ncnc6sc(CC(F)(F)F)cc56)C4)C3)ccc2C#N)CC1 (mixture of isomers) [Compound 225]
2,> 3.75 µM,Nc1nc(N2CCC3(CC(Nc4ccc5oc(=O)[nH]c5c4)C3)C2)c2cc(CC(F)(F)F)sc2n1 (stereo not drawn) [Compound 380]
3,> 3.75 µM,CNC(=O)c1ccc(NC2CC3(CCN(c4ncnc5sc(CC(F)(F)F)cc45)C3)C2)cc1NCCN(C)C (mixture of isomers) [Compound 239]
4,> 3.75 µM,"CN(C)CCNC(=O)c1ccc(NC2CC3(CCN(c4ncnc5sc(CC(F)(F)F)cc45)C3)C2)cc1 (single isomer, unassigned) [Compound 74]"
5,2.24 µM,"CNC(=O)c1ccc(NC2CC3(CCN(c4ncnc5sc(CC(F)(F)F)cc45)C3)C2)c(Cl)c1 (single isomer, unassigned) [Compound 68]"
6,1.14 µM,CN1CCN(c2cc(NC3CC4(CCN(c5ncnc6sc(CC(F)(F)F)cc56)C4)C3)ccc2C#N)CC1 (mixture of isomers) [Compound 240]

# Same assay, conditions: confluence at day 8, read-out: (3b) Spheroid assay MOLM14 (IC50(μM)) Assay B
row,IC50,SMILES
1,> 3.75 µM,"CNC(=O)c1ccc(NC2CC3(CCN(c4ncnc5sc(CC(F)(F)F)cc45)C3)C2)cc1C1CCN(C)CC1 (single isomer, unassigned) [Compound 231]"
2,> 3.75 µM,"CS(=O)(=O)N1CCN(C(=O)c2ccc(NC3CC4(CCN(c5ncnc6sc(CC(F)(F)F)cc56)C4)C3)cc2)CC1 (single isomer, unassigned) [Compound 179]"
3,> 3.75 µM,"O=C(c1cnc(NC2CC3(CCN(c4ncnc5sc(CC(F)(F)F)cc45)C3)C2)nc1)N1CCOCC1 (single isomer, unassigned) [Compound 259]"
4,> 3.75 µM,"CNC(=O)c1c(F)cc(NC2CC3(CCN(c4ncnc5sc(CC(F)(F)F)cc45)C3)C2)cc1F (single isomer, unassigned) [Compound 244]"
5,> 3.75 µM,"COC1CCN(C(=O)c2ccc(NC3CC4(CCN(c5ncnc6sc(CC(F)(F)F)cc56)C4)C3)cc2)CC1 (single isomer, unassigned) [Compound 184]"
6,> 3.75 µM,"CN1CCC(c2cc(NC3CC4(CCN(c5ncnc6sc(CC(F)(F)F)cc56)C4)C3)ccc2C(=O)N2CCOCC2)CC1 (single isomer, unassigned) [Compound 233]"

# Molecular target: T1, menin.FITC-MBM1 complex (terbium chelate-labeled menin) (Homo sapiens, UniProt O00255, F410E/T541A)
# T1 construct: Menin (a.a. 1-610-6×his tag) was labeled with terbium cryptate as follows
# T1 sequence (O00255 with tags, fused parts or gaps F410E/T541A): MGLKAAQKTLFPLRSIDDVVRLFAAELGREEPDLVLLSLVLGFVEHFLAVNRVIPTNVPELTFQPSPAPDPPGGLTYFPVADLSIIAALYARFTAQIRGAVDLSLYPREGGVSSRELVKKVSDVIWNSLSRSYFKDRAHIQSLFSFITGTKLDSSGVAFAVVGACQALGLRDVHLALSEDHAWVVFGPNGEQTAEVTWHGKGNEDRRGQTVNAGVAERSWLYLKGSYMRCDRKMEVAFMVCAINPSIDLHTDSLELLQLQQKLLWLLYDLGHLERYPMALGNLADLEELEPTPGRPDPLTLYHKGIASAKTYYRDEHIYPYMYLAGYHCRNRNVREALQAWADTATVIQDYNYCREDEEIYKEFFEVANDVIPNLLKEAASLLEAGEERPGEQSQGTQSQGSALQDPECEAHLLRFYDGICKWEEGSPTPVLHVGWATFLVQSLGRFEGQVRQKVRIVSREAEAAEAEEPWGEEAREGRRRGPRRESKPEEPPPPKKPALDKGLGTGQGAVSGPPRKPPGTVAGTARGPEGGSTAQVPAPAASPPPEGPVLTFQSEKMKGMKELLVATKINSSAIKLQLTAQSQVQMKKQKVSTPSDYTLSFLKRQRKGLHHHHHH
# Test: Menin/MLL homogenous time-resolved fluorescence (HTRF) assay
# Type: binding
# Details: location 2; read-out: (2) location 2 Menin HTRF assay (IC50 (nM))
# Method: 2) Menin/MLL Homogenous Time-Resolved Fluorescence (HTRF) Assay
# To an untreated, white 384-well microtiter plate was added 40 nL 200× test compound in DMSO and 4 μL 2× terbium chelate-labeled menin (vide infra for preparation) in assay buffer (40 mM Tris.HCl, pH 7.5, 50 mM NaCl, 1 mM DTT and 0.05% Plutonic F-127). After incubation of test compound and terbium chelate-labeled menin for 5 min at ambient temperature, 4 μL2× FITC-MBM1 peptide (FITC-β-alanine-[…]-NH2) in assay buffer was added, the microtiter plate centrifuged at 1000 rpm for 1 min and the assay mixtures incubated for 15 min at ambient temperature. The relative amount of menin.FITC-MBM1 complex present in an assay mixture is determined by measuring the homogenous time-resolved fluorescence (HTRF) of the terbium/FITC donor/acceptor fluorphore pair using a BMG Pherastar plate reader (ex. 337 nm/terbium em. 490 nm/FITC em. 520 nm) at ambient temperature. The degree of fluorescence resonance energy transfer (the HTRF value) is expressed as the ratio of the fluorescence emission intensities of the FITC and terbium fluorophores (F^em 520 nm/F^em 490 nm). The final concentrations of reagents in the binding assay are 100 pM terbium chelate-labeled menin (location 1) or 600 pM terbium chelate-labeled menin (location 2), 75 nM FITC-MBM1 peptide and 0.5% DMSO in assay buffer. Dose-response titrations of test compounds are conducted using an 11 point, three-fold serial dilution scheme, starting typically at 25 μM (location 1) or starting typically at 10 μM (location 2).
# Compound potencies were determined by first calculating % inhibition at each compound concentration according to equation 1:
# % inhibition=((HC−LC)−(HTRF^compound−LC))/(HC−LC))*100 (Eqn 1)
# Where LC and HC are the HTRF values of the assay in the presence or absence of a saturating concentration of a compound that competes with FITC-MBM1 for binding to menin, and HTRF^compound is the measured HTRF value in the presence of the test compound. HC and LC HTRF values represent an average of at least 16 replicates per plate.
# % inhibition=Bottom+(Top−Bottom)/(1+10^((log IC50−log [cmpd])*h)) (Eqn 2)
# Where Bottom and Top are the lower and upper asymptotes of the dose-response curve, respectively, IC50 is the concentration of compound that yields 50% inhibition of signal and h is the Hill coefficient.
# Preparation of Terbium cryptate labeling of Menin: Menin (a.a. 1-610-6×his tag) was labeled with terbium cryptate as follows. 2 mg of Menin was buffer exchanged into 1× phosphate buffered saline. 16 uM Menin was incubated with 4-fold molar excess NHS-terbium cryptate (Cisbio Bioassays, Bedford, Mass.) for 2 hours at room temperature. The labeled protein was purified away from free label by running the reaction over a Superdex 200 Increase 10/300 GL column at 0.75 ml/min. Peak fractions were collected, aliquoted and frozen at −80° C.
row,SMILES,IC50
1,O=S(=O)(NC1CC2(CCN(c3ncnc4sc(CC(F)(F)F)cc34)C2)C1)c1ccccc1 (stereo not drawn) [Compound 23],1310 nM
2,CNC(=O)c1ccc(N[C@@H]2CC[C@]3(CCN(c4ncnc5sc(CC(F)(F)F)cc45)C3)C2)cc1 (racemic) [Compound 136],40.9 nM
3,FC(F)(F)Cc1cc2c(N3CC4(CCC(Nc5ccc(-c6cn[nH]c6)cc5)C4)C3)ncnc2s1 (stereo not drawn) [Compound 302],50.9 nM
4,"O=c1[nH]c2ccc(CN[C@@H]3CCC4(C3)CN(c3ncnc5sc(CC(F)(F)F)cc35)C4)cc2o1 (single isomer, unassigned) [Compound 55]",2 nM

# Next, values leading:
row,IC50,SMILES
1,114 nM,"N#Cc1ccc(NC2CC3(CCN(c4ncnc5sc(CC(F)(F)F)cc45)C3)C2)nc1 (single isomer, unassigned) [Compound 174]"
2,8.7 nM,Nc1nc(N2CCC3(CC(Nc4ccc5oc(=O)[nH]c5c4)C3)C2)c2cc(CC(F)(F)F)sc2n1 (stereo not drawn) [Compound 380]
3,91.5 nM,O=c1[nH]c2ccc(NC3CC4(CCN(c5ncnc6sc(CC(F)(F)F)cc56)C4)C3)cc2[nH]1 (stereo not drawn) [Compound 321]
4,1.2 nM,"CNC(=O)c1ccc(NC2CC3(CCN(c4ncnc5sc(CC(F)(F)F)cc45)C3)C2)c(Cl)c1 (single isomer, unassigned) [Compound 69]"
5,143 nM,CNS(=O)(=O)c1ccc(NC2CC3(CCN(c4ncnc5sc(CC(F)(F)F)cc45)C3)C2)cc1 (stereo not drawn) [Compound 317]
